≈ marks a conversion by molar mass, not a printed value.
What was measured:
[1] = molecular target: T1, Carnitine O-palmitoyltransferase 1, liver isoform (Rattus norvegicus, UniProt P32198); experiment: (§1) SUPPLEMENTARY: Inhibition of Carnitine palmitoyltransferase 1, liver isoform
T1 sequence (P32198 whole entry): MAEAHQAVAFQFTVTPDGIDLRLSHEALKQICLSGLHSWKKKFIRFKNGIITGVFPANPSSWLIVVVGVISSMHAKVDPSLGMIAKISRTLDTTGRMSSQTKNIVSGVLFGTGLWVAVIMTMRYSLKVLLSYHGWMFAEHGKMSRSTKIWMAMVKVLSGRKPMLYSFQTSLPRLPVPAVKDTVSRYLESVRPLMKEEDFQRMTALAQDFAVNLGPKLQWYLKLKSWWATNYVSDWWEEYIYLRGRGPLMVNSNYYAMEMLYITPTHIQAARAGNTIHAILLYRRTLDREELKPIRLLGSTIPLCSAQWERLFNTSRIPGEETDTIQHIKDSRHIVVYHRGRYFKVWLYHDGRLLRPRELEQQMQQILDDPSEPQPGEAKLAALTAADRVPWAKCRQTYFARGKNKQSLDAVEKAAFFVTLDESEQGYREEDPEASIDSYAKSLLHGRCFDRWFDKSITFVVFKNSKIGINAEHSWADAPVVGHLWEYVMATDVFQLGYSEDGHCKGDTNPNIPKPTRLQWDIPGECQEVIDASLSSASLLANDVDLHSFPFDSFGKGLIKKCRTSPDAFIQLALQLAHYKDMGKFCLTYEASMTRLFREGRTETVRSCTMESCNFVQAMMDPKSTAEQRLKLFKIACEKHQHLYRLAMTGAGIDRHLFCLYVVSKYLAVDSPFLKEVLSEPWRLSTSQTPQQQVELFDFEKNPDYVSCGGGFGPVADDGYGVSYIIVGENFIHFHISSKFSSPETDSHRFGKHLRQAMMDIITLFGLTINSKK

[2] = molecular target: T2, Carnitine O-palmitoyltransferase 1, liver isoform (Homo sapiens, UniProt P50416); experiment: as §1
T2 sequence (P50416 whole entry): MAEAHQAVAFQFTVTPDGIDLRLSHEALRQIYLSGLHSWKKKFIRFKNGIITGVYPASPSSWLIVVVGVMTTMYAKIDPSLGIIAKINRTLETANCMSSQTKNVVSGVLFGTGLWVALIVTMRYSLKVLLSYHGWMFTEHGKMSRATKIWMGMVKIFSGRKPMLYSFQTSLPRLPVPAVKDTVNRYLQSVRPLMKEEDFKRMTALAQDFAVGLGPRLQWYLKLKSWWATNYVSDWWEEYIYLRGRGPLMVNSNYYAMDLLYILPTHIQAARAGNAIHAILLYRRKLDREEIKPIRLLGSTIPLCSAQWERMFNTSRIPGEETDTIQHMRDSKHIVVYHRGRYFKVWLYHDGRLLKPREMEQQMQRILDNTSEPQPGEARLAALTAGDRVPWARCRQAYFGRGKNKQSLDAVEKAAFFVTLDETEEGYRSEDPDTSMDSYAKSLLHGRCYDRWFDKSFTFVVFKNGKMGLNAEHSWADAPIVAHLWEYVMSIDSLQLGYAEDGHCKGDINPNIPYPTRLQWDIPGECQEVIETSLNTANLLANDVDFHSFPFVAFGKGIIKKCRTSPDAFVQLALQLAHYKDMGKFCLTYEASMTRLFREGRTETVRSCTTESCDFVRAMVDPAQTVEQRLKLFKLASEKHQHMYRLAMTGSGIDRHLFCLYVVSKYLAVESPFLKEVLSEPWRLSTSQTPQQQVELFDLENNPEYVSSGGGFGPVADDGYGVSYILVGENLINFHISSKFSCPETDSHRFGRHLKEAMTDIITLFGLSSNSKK

[3] = SUPPLEMENTARY: PAMPA permeability assay; format: physicochemical; conditions: read-out: Permeability
[4] = molecular target: T3, Carnitine O-palmitoyltransferase 2, mitochondrial (Homo sapiens, UniProt P23786); experiment: (§2) SUPPLEMENTARY: Inhibition of Carnitine palmitoyltransferase 2
T3 sequence (P23786 whole entry): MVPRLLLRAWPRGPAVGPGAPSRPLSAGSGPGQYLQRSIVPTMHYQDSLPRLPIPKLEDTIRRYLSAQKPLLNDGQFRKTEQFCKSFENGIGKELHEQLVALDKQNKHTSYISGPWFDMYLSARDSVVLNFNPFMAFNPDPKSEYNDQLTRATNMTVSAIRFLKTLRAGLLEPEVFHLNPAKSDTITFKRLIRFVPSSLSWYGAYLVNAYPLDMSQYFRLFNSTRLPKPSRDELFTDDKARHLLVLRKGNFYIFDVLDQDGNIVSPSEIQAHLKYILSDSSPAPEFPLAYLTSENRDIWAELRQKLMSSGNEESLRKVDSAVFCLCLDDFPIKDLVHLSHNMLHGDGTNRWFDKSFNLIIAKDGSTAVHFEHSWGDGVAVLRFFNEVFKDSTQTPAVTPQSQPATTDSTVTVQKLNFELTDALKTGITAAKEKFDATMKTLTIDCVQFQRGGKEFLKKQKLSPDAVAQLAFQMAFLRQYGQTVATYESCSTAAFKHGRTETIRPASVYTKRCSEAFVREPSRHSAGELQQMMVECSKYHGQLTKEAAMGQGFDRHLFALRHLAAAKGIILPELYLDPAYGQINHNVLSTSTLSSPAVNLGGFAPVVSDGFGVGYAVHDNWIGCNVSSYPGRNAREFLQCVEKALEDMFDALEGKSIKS

[5] = molecular target: T4, Carnitine O-palmitoyltransferase 2, mitochondrial (Rattus norvegicus, UniProt P18886); experiment: as §2
T4 sequence (P18886 whole entry): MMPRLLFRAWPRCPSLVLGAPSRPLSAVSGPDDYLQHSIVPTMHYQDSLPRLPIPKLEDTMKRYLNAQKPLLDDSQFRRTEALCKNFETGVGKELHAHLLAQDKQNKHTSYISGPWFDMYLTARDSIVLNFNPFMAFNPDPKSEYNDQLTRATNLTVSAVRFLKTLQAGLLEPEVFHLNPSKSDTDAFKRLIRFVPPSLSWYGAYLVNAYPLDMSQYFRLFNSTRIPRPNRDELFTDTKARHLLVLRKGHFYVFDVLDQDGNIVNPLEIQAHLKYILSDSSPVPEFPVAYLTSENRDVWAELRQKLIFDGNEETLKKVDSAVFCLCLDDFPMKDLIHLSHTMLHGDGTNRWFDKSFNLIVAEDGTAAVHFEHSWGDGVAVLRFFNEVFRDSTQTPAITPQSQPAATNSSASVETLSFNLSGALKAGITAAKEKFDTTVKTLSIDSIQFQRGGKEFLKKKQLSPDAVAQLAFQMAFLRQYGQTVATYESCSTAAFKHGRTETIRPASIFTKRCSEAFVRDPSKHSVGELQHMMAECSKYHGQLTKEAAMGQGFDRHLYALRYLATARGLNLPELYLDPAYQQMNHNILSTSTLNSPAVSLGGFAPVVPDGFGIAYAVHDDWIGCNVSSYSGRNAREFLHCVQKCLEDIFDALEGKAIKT

[6] = molecular target: T5, Carnitine O-palmitoyltransferase 1, muscle isoform (Homo sapiens, UniProt Q92523); experiment: SUPPLEMENTARY: Inhibition of Carnitine palmitoyltransferase 1, muscle isoform; set-up: species or system Muscle tissue
T5 sequence (Q92523 whole entry): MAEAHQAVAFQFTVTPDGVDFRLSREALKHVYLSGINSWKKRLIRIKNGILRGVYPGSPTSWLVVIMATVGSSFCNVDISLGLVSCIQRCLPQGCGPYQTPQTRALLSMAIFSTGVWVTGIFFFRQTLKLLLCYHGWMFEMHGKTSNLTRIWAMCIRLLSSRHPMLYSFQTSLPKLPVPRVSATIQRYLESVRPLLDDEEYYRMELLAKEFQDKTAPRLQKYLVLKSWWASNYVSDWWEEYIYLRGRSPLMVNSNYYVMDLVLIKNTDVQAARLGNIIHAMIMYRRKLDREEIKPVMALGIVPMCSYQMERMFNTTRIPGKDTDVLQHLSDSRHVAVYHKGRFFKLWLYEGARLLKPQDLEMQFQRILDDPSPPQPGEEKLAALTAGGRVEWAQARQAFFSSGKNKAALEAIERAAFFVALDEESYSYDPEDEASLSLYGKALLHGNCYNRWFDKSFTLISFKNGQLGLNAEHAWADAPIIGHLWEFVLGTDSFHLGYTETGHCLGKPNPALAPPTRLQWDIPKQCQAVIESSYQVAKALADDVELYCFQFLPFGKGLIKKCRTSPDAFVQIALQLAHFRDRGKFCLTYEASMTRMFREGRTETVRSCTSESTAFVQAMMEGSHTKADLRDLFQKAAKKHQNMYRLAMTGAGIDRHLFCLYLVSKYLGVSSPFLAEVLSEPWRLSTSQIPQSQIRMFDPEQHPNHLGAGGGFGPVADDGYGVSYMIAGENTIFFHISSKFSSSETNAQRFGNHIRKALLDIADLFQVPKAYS

[7] = SUPPLEMENTARY: Lyophilisation Solubility Assay (LYSA); format: physicochemical; conditions: read-out: Kinetic_solubility
[8] = SUPPLEMENTARY: Lipophilicity (log D) Determination by high-throughput shake-flask; format: physicochemical; conditions: octanol/water

Compound | IC50 [1] [nM] | IC50 [2] [nM] | Papp [3] [×10⁻⁶ cm/s] | IC50 [4] [µM] | IC50 [5] [µM] | IC50 [6] [µM] | solubility kinetic [7] [µg/mL] | logD [8]
CS(=O)(=O)Nc1cccc(-c2n[nH]c([C@H]3CCCCN3C(=O)COc3ccccc3)n2)c1 | 175 | 146 | 2.56 | 23.9 | 82.8 | > 100 | 103 (≈ 226 µM) | 2.27
COc1ccc(Cl)cc1S(=O)(=O)N1COCc2ccc(C(=O)Nc3ccc(CC(=O)O)cc3)cc21 | 483 | 187 | 1.39 | > 100 | > 100 | 3.28 | 100 (≈ 193 µM) | -0.23
O=C([C@H]1CCCCN1C(=O)COc1ccccc1)N1Cc2cc(F)c(N3CCOCC3)cc2C1 | 106 | 229 | 8.31 | 0.54 | 2.01 | > 100 | 70 (≈ 150 µM) | 2.01
O=C(COc1ccccc1)N1CCCC[C@@H]1c1nc(-c2ccc([N+](=O)[O-])s2)no1 | 376 | 223 | 4.39 | 62.3 | > 100 | > 100 | < 1 | > 3
COCCN(c1cc(C(=O)Nc2nc(CC(=O)O)cs2)cc2c1OCO2)S(=O)(=O)c1cc(Cl)ccc1OC | 154 | 252 | 1.16 | 74.4 | > 100 | 3.56 | 238 (≈ 408 µM) | 2.57
CC(=O)Nc1cc(F)cc(-c2noc([C@H]3CCCCN3C(=O)COc3ccccc3)n2)c1 | 131 | 123 | 1.35 | > 100 | > 100 | > 100 | < 1 | 3.62
COc1ccc(Cl)cc1S(=O)(=O)c1c2cc(C(=O)Nc3ccc(C(=O)O)cc3)ccc2nn1C | 56.3 | 60.1 | 2.25 | > 100 | > 100 | > 100 | 36 (≈ 72 µM) | 2.41
O=C([C@H]1CCCCN1C(=O)COc1ccccc1)N1Cc2ccc(C3CCOC3)cc2C1 (stereo not given in full) | 77.2 | 63.5 | 4.71 | 0.473 | 0.701 | > 100 | 46 (≈ 106 µM) | 2.72
CCN(CC)C(=O)c1nc([C@H]2CCCCN2C(=O)COc2ccccc2)no1 | 936 | 283 | 11.5 | > 100 | > 100 | > 100 | 143 (≈ 370 µM) | 2.36
COc1ccc(Cl)cc1CN1C(=O)CS(=O)(=O)c2ccc(C(=O)Nc3nc(CC(=O)O)cs3)cc21 | 89.8 | 219 | 0.85 | > 100 | > 100 | 9.62 | 417 (≈ 778 µM) | -0.29

From ChEMBL document CHEMBL3431459, “Roche carnitine palmitoyltransferase modulator screening data (supplementary data associated with the publication CHEMBL2216752)”
